SMILES strings stand for the structures.

These results are taken from patent publication US20140057332A1, “GLUCO-OLIGOSACCHARIDE OXIDASES FROM ACREMONIUM STRICTUM AND USES THEREOF” (The Governing Council of the University of Toronto, priority 2011, published 2014).

Test [1] has as its system Acremonium strictum strain T1 gluco-oligosaccharide oxidase GOOX-T1. The following applies: recombinant GOOX-T1; cited from earlier work.
Test [2] concerns Acremonium strictum gluco-oligosaccharide oxidase (GOOX). Particulars: oxidation of maltose, Fan et al. (2000); cited from earlier work.
The target of test [3] is T1, Acremonium strictum gluco-oligosaccharide oxidase GOOX-VN (type strain CBS 346.70, V38 and N388), SEQ ID NO. 2 (Sarocladium strictum, UniProt D7PF15, A38V/S388N).
T1 sequence (D7PF15 1-474 A38V/S388N): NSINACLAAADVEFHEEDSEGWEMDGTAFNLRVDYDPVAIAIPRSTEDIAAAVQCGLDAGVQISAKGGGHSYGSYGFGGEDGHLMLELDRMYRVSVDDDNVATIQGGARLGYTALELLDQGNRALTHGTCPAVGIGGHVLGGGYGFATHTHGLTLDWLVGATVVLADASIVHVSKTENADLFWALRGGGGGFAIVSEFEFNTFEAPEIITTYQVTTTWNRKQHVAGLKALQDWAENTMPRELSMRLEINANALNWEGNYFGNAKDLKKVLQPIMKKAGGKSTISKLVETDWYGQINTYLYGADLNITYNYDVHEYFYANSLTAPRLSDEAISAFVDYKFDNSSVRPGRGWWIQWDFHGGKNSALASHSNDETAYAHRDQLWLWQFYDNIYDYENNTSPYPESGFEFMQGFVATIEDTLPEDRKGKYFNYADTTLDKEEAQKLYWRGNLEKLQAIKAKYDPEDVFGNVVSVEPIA
The experiment in a line: Enzymatic assay, kinetic analysis (chromogenic H2O2 assay) of GOOX-VN. The following applies: 37° C., pH 8.0.
Description: A chromogenic assay was used to measure hydrogen peroxide production (15). Reactions contained 0.1 mM 4aminoantipyrine (4AA), 1 mM phenol, 0.5 U horseradish peroxidase, 40 mM Tris-HCl (pH 8.0), and different substrates were initiated by adding 0.2 μg of enzymes to the 250 μL reaction mixture. The production of H2O2 was coupled to the oxidation of 4aminoantipyrine by horseradish peroxidase and detected at 500 nm. Reactions were incubated at 37° C. for 15 min to measure the specific activity of GOOX on 10 mM of monosaccharide or 1 mM of oligosaccharide.
At least 12 substrate concentrations were included to obtain kinetic parameters for each substrate. Initial rates were obtained by measuring reaction products every 30 s for 15 min at 37° C. and pH 8.0, and kinetic parameters were calculated using the Michaelis-Menten equation (GraphPad Prism5 Software).

Take `OC[C@H]1O[C@H](O[C@H]2[C@H](O)[C@@H](O)C(O)O[C@@H]2CO)[C@H](O)[C@@H](O)[C@@H]1O` (stereo partly shown) [Maltose, maltose]: the figures for the kcat in test [1], in test [3] and in test [3] (listed as maltose) were 361 min⁻¹, 360.0 ± 5.1 min⁻¹ and 360.0 min⁻¹, respectively. For the same molecule, in test [2], the “Km, pH dependence” value is recorded as “highest at pH 9”.
